Where two headings read alike, the source gives them in different places.
Legend:
[1] = parameters: method as in PMID 18086845; details: 8 h after daily treatment for 7 days with 273 µM TMC120; cited from earlier work
HIV-1 = details: in vitro; ref Fernández-Romero unpublished; cited from earlier work
[2] = rat, in vivo; cited from earlier work
HIV-1 Y181C mutant = tested on: HIV-1 Y181C mutant; parameters: method as in Fernández-Romero unpublished; details: ref Fernández-Romero unpublished; read-out: IC50 against Y181C mutant; cited from earlier work
HIV-1 wild type = tested on: HIV-1 wild type; parameters: method as in Fernández-Romero unpublished; details: ref Fernández-Romero unpublished; read-out: IC50 against wild type; cited from earlier work
[3] = Vaginal pH and cytokines/chemokines in vaginal fluids after repeated gel; format: in vivo, Rhesus macaques (Macaca mulatta)
Description: PBMCs were isolated from EDTA blood using Ficoll-Hypaque density gradient centrifugation (Amersham Pharmacia Biotech, Uppsala, Sweden) as already described. RPMI 1640 (Invitrogen/GIBCO, Carlsbad, CA, USA) culture medium containing 2 mM L-glutamine (Invitrogen/GIBCO) 10 mM HEPES (N-2-hydroxyethylpiperazine-N'-2-ethanesulfonic acid) (Invitrogen/GIBCO), 50 µM 2-mercaptoethanol (Sigma) penicillin (100 U/ml) and streptomycin (100 µg/ml) (Invitrogen/GIBCO) and 1% heparinized human plasma (Innovative Research, Southfield, MI) was used for final re-suspension of PBMCs. Medium with 10% HI-FBS (heat inactivated fetal bovine serum) (Invitrogen/GIBCO) instead of 1% human plasma was used for the PBMC-174xCEM co-cultures. DNA was isolated from lymph nodes as described with the DNeasy® Blood & Tissue Kit (Qiagen Sciences, MD USA). […] Vaginal pH was determined by inserting pH-indicator strip (EMO Chemical Inc., Gibbstown, NJ) into the vaginal vault for 5 minutes to saturate the pH paper with vaginal fluid.
SIV-specific IFN-γ T cell responses were monitored by ELISPOT using AT-2 SIV (versus the no virus microvesicle controls) as the stimuli and SIV-specific antibodies by ELISA [36]. […] Cell-free vaginal fluids were analyzed for chemokine and cytokine expression using the monkey-reactive Beadlyte human 14-plex Detection System according to the manufacturer's instructions (Invitrogen). […]

R5 and X4 viruses [4] = tested on: R5 and X4 viruses; parameters: method as in PMID 16924181, PMID 18776937, PMID 7545297; details: read-out: antiviral IC50; cited from earlier work
[5] = tested on: HIV-1 L100I/K103N double mutant; parameters: method as in Fernández-Romero unpublished; details: ref Fernández-Romero unpublished; read-out: IC50 against L100I/K103N double mutant; cited from earlier work
R5 and X4 viruses [6] = tested on: R5 and X4 viruses; parameters: method as in PMID 16924181, PMID 18776937, PMID 7545297; details: potentially virucidal; cited from earlier work

SMILES	level of TMC120 associated with the cervical tissues [1] [pg/mg]	memory effect: time exposed cells remain resistant to infection (HIV-1)	time to becoming undetectable in plasma (short plasma half-life) [2] [h]	IC50 (HIV-1 Y181C mutant) [nM]	IC50 (HIV-1 wild type) [nM]	impact on vaginal pH ([3]; before, during and 8 or 24 h after 2 week gel administration)	impact on CXCL8 and CCL2 levels in vaginal fluids ([3]; relative to carrageenan, 2 week daily gel administration)	IC50 (R5 and X4 viruses [4]) [nM]	IC50 [5] [nM]	IC50 (R5 and X4 viruses [6]) [nM]
Cc1cc(C)c(Nc2ccnc(Nc3ccc(C#N)cc3)n2)c(C)c1 [TMC120]	3 to 80									
CCC(=O)c1ccc(F)c([C@@H]2C[C@@H]2NC(=O)Nc2ccc(C#N)cn2)c1O [MIV-150]		up to 5 d	≤ 24	0.2	0.7	no impact	no further impact	< 1	900	400
O=C1Nc2ccc(Cl)cc2[C@@](C#CC2CC2)(C(F)(F)F)O1 [Efavirenz, reference compound]					0.6				> 10000	
